These results are taken from patent US8222274B2, “Pyrrole derivative or salt thereof” (Astellas Pharma Inc., priority 2006, dated 2012).

One assay has as its target T1, human 5-HT7 receptor (Homo sapiens, UniProt P34969).
T1 construct: expressed in transfected cells; host or cells: CHO cells (membrane preparation)
Nature of the assay: 5-HT7 receptor binding test. The following applies: human 5-HT7 receptor expressing CHO cell membrane, [3H] 5-HT. On the procedure: Test Method (2) 5-HT7 Receptor Binding Test (i) Preparation of Membrane Sample
Cultured human 5-HT7 receptor expressing CHO cells were washed with PBS(−). The cells were peeled off with a scraper in the presence of PBS(−), and the cells were recovered by centrifugation (1,000 rpm, 10 minutes, 4° C.). In the presence of 5 mM Tris-HCl (pH 7.4) buffer, homogenized using a homogenizer (registered trademark: Polytron (PTA 10-TS)), and centrifugation-treated (40,000×g, 10 minutes, 4° C.). In the presence of 50 mM Tris-HCl (pH 7.4) buffer, suspended using Glass-Teflon (registered trademark) homogenizer. By carrying out centrifugation treatment (40,000×g, 10 minutes, 4° C.), suspended in 50 mM Tris-HCl (pH 7.4) and stored at −80° C.
(§1) (ii) Receptor Binding Test
A total volume of 500 μl containing 50 mM Tris-HCl, a 4 mM CaCl2 (pH 7.4) buffer, a human 5-HT7 receptor expressing CHO cell membrane preparation and a radio-ligand [^3H] 5-HT (3.40 TBq/mmol) was incubated at 25° C. for 1 hour. The compound was dissolved in 100% DMSO and diluted to respective concentrations. Binding quantity in the presence of 10 μM metergoline was regarded as the nonspecific binding, and a result of subtracting the nonspecific binding quantity from the total binding quantity was regarded as the specific binding quantity. After adding 4 ml of 50 mM Tris-HCl buffer (pH 7.4) and filtering under a reduced pressure using a GF/B glass filter, the filter was washed (4 ml×3) with the same buffer. By soaking the glass filter in 5 ml of a liquid scintillator (trade name: Aquasol-2), the radioactivity quantity was measured using a liquid scintillation counter.

Another assay deals with T2, human 5-HT2B receptor (Homo sapiens, UniProt P41595).
T2 construct: expressed in transfected cells; host or cells: HEK293-EBNA cells (membrane preparation)
The assay is described as follows: 5-HT2B receptor binding test. The conditions noted are these: human 5-HT2B receptor expressing HEK293-EBNA cell membrane, [3H] Mesulergine. As to the method:
Test Method (1) 5-HT2B Receptor Binding Test
(i) Preparation of Membrane Sample
Cultured human 5-HT2B receptor expressing HEK293-EBNA cells were washed with a phosphate buffer (PBS)(−). The cells were peeled off with a scraper in the presence of PBS(−), and the cells were recovered by centrifugation (1,000 rpm, 10 minutes, 4° C.). In the presence of 5 mM tris-hydrochloric acid (Tris-HCl) (pH 7.4) buffer, homogenized using a homogenizer (registered trademark: Polytron (PTA 10-TS)), and centrifugation-treated (40,000×g, 10 minutes, 4° C.). In the presence of 50 mM Tris-HCl (pH 7.4) buffer, suspended using Glass-Teflon (registered trademark) homogenizer. By carrying out centrifugation treatment (40,000×g, 10 minutes, 4° C.), suspended in 50 mM Tris-HCl (pH 7.4) and stored at −80° C.
as §1
A total volume of 500 μl containing 50 mM Tris-HCl, a 4 mM CaCl2 (pH 7.4) buffer, a human 5-HT2B receptor expressing HEK293-EBNA cell membrane preparation and a radio-ligand [^3H] Mesulergine (3.1 TBq/mmol) was incubated at 25° C. for 1 hour. The compound was dissolved in 100% dimethyl sulfoxide (DMSO) and diluted to respective concentrations. Binding quantity in the presence of 1 μM ritanserin was regarded as the nonspecific binding, and a result of subtracting the nonspecific binding quantity from the total binding quantity was regarded as the specific binding quantity. After adding 4 ml of 50 mM Tris-HCl buffer (pH 7.4) and filtering under a reduced pressure using a GF/B glass filter, the filter was washed (4 ml×3) with the same buffer. By soaking the glass filter in 5 ml of a liquid scintillator (trade name: Aquasol-2), the radioactivity quantity was measured using a liquid scintillation counter. […] Ex represents example compound number which is described later.

Another assay concerns male Wistar rats. The assay is described as follows: Defecation suppressing effect at the time of restraint stress loading (rat restraint stress defecation model). The class given is in vivo. The following applies: for suppressing action on defecation / defecation-suppressing action: rat restraint stress, faces excreted during 1 hour after stress loading; for suppressing action on defecation: starting from a dose of 1 mg/kg (p.o.); for number of faces excreted, difference in comparison with the non-administration group: rat restraint stress, 1, 3 or 10 mg/kg administration group, N=10; for defecation-suppressing action: even at a dose of 10 mg/kg p.o. On the procedure:
Test method (4) Defecation Suppressing Effect at the Time of Restraint Stress Loading
The IBS-treating effect of the compound (I) of the present invention was evaluated using a test method in which the amount of excreted faces is measured by loading a restraint stress on rats (see “The Journal of Pharmacology Experimental Therapeutics”, (USA), 1992, vol. 261, p. 297-303).
The agent to be tested was administered to male Wistar rats (body weight 250 to 320 g, 10 animals for each group), and a restraint stress was loaded 30 minutes thereafter. A restraint cage (trade name: KN-468, 265 mm in width×95 mm in length×200 mm in height, Natsume Seisakusho, Tokyo) was used for the restraint stress loading, and the number of faces excreted during 1 hour after the stress loading was counted.

The test system of the next assay is 5-HT2B receptor. The following applies: versus 5-HT1A, 5-HT1B, 5-HT2A, 5-HT2C, 5-HT3, 5-HT6, 5-HT7, α1, M1, D2 and the like; cited from earlier work.

Each structure is given as a SMILES string. pKi: −log10 of the molar value.

T2 sequence (P41595 whole entry): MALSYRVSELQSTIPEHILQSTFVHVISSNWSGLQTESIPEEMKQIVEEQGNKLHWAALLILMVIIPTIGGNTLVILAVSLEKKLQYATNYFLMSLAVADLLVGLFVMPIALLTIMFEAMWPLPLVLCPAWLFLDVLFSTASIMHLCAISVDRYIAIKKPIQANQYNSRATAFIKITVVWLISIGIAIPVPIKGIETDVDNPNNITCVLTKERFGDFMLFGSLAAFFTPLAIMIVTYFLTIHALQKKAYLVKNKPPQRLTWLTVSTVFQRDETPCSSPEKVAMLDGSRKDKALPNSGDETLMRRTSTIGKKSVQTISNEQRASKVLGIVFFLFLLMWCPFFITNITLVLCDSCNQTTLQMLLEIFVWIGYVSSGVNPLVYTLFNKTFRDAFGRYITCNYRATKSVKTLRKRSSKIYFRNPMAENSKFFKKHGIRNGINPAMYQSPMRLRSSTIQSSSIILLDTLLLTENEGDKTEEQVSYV
T1 sequence (P34969 whole entry): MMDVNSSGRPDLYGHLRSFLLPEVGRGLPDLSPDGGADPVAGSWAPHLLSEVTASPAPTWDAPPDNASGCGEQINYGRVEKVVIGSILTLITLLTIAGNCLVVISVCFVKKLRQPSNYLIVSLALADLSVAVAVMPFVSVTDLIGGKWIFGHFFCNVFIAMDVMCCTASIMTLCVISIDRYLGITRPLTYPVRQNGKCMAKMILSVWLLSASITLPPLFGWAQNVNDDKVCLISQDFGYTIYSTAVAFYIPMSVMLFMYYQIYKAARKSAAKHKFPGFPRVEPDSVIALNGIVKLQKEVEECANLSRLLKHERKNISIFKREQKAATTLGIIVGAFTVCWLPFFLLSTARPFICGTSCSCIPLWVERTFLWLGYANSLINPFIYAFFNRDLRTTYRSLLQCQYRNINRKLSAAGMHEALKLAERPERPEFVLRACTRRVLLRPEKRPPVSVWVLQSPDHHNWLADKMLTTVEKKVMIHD

Usually pKi stands for the Ki on a negative log10 scale, so that one unit is a factor of ten. On to `Cc1c(C(=O)NC[C@@H]2CCCN2C)cc(C(C)(C)C)n1CCc1ccc(F)cc1` [Example 161], for which the values for the pKi on human 5-HT7 receptor and at human 5-HT2B receptor were 8.28 and 8.08, respectively. In the assay with male Wistar rats, the “suppressing action on defecation” value was “significant suppressing action”.

With `Cc1c(C(=O)NC[C@H]2CCCN2C)cc(C(C)(C)C)n1CCc1ccc(F)cc1` [Example 163], the figures for the negative-log Ki (pKi) on human 5-HT7 receptor and at human 5-HT2B receptor were 8.39 and 8.15, respectively.

As to `Cc1c(C(=O)N[C@H]2CCN(C)C2)cc(C(C)(C)C)n1CCc1ccc(F)cc1` [Example 153], the values for the negative logarithm of the Ki (pKi) on human 5-HT7 receptor and at human 5-HT2B receptor were 8.19 and 7.92, respectively. Besides, in the assay with male Wistar rats, the “suppressing action on defecation” value is “significant suppressing action”.

Turning to `Cc1c(C(=O)N[C@H]2CCN(C)C2)c(C)n(CCc2ccc(F)cc2)c1C(C)(C)C` [Example 218], the results for the negative-log Ki (pKi) at human 5-HT7 receptor and at human 5-HT2B receptor were 8.37 and 8.04, respectively.

`Cc1c(C(=O)N=C(N)N)c(C)n(CCc2ccc(F)cc2)c1C(C)(C)C` [Example 142]: the negative logarithm of the Ki (pKi) on human 5-HT7 receptor was 8.82; on human 5-HT2B receptor it was 8.43.

Regarding `Cc1c(C(=O)NCCN(C)C)cc(-c2ccsc2)n1CCc1ccc(F)cc1` [Example 187], the results for the negative logarithm of the Ki (pKi) on human 5-HT7 receptor and at human 5-HT2B receptor were 7.96 and 9.17, respectively.

`Cc1c(C(=O)N=C(N)N)cc(C2CCCC2)n1CCc1ccc(F)cc1` [Example 52]: the pKi is 8.89 on human 5-HT7 receptor and 9.32 at human 5-HT2B receptor.

`Cc1c(C(=O)N=C(N)N)cc(-c2ccccc2)n1Cc1ccco1` [Example 98]: the negative logarithm of the Ki (pKi) on human 5-HT7 receptor was 7.55; at human 5-HT2B receptor, 8.02.

On to `CC(C)c1cc(-c2ccc(F)c3ccccc23)nc(N)n1` [RS-127445, 2-amino-4-(4-fluoronaphth-1-yl)-6-isopropylpyrimidine], for which, in the assay on 5-HT2B receptor, the “5-HT2B receptor-selective by a factor” value is on record as not below 1000 times. For the same molecule, in the assay on male Wistar rats, the “number of faces excreted, difference in comparison with the non-administration group” value is given as “Significant difference was not found” and the defecation-suppressing action result was “did not show defecation-suppressing action”.

For `Cc1c(C(=O)NCCN(C)C)cc(Cc2ccc(F)cc2)n1CCc1ccc(F)cc1` [Example 196], the pKi is 8.74 at human 5-HT7 receptor and 8.14 at human 5-HT2B receptor.

Consider `Cc1c(C(=O)NCCN(C)C)cc(C(C)(C)C)n1CCc1ccc(F)cc1` [Example 2, 5-tert-butyl-N-[2-(dimethylamino)ethyl]-1-[2-(4-fluorophenyl)ethyl]-2-methyl-1H-pyrrole-3-carboxamide], for which the pKi is 8.96 on human 5-HT7 receptor and 8.11 on human 5-HT2B receptor.

As for `Cc1c(C(=O)N[C@@H]2CCN(C)C2)cc(C(C)(C)C)n1CCc1ccc(F)cc1` [Example 154], the negative-log Ki (pKi) was 7.85 on human 5-HT7 receptor and 8.68 on human 5-HT2B receptor. For the same molecule, the “suppressing action on defecation” value in the assay on male Wistar rats is listed as “significant suppressing action”.

As to `Cc1c(C(=O)NCCN(C)C)cc(C(C)(C)C)n1OCc1ccc(F)cc1` [Example 211], the pKi is 8.51 at human 5-HT7 receptor and 8.12 on human 5-HT2B receptor.

Turning to `Cc1c(C(=O)N[C@@H]2CCN(C)C2)c(C)n(CCc2ccc(F)cc2)c1C(C)(C)C` [Example 217], the negative-log Ki (pKi) at human 5-HT7 receptor was 8.09; on human 5-HT2B receptor, 8.64.

As for `CC1CCN(CC[C@H]2CCCN2S(=O)(=O)c2cccc(O)c2)CC1` [SB-269970, (R)-3-(2-(2-(4-methylpiperidin-1-yl)ethyl)pyrrolidine-1-sulfonyl)phenol], in the assay on male Wistar rats, the “number of faces excreted, difference in comparison with the non-administration group” value is “Significant difference was not found” and the defecation-suppressing action result is “did not show the defecation-suppressing action”.
